The record followed here is patent publication US7850948B2, “Radiohalogenated benzamide derivatives and their use in tumor diagnosis and tumor therapy” (Bayer Schering Pharma AG, priority 2004, dated 2010).

Data set [1] concerns B16/F1 tumor-bearing C57BL6 mice. Nature of the data set: Tissue concentration of radioiodinated benzamides in the C57BL6-B16/F1 mouse model (organ distribution and tumor accumulation). It counts as in vivo. The note with it: for Blood tissue concentration / Liver tissue concentration / Tumor tissue concentration: n = 3. As for the experimental part:
(§1) After synthesis and purification, the compounds according to the invention are dissolved in a physiologically compatible medium and kept ready for injection. Organ distribution and tumor accumulation experiments were performed in B16/F1 tumor-bearing C57BL6 mice, and SK-Mel-3 tumor-bearing NMRI nude mice (15-22 g).
(§2) Murine B16/F1 and human SK-Mel-3 cells were ordered from ATCC. B16/F1 cells (0.5×10^6) are washed in buffer (preferably phosphate buffer), suspended and inoculated subcutaneously into C57BL6 mice, 100 μl, in the right rear flanks. Sk-Mel-3 cells (5×10^6) are washed in buffer and then inoculated subcutaneously into NMRI mice in Matrigel® (100 μl) in the right side of the trunk. After about 8-10 days, the animals develop palpable tumors with a surface area of about 30 mm^2. The distribution studies are performed after intravenous caudal vein administration of 3.7-5.5 MBq of the substances according to the invention in 50-100 μl of volume. At certain times after administration, the animals are sacrificed, organs and tumors are removed, optionally dabbed dry, weighed and measured for radioactive content (γ measurement) in a calibrator with the corresponding isotope standard. The results are depicted as % of the injected dose (ID)/g of tissue (Table 1).

Data set [2] concerns SK-Mel-3 tumor-bearing NMRI nude mice. Nature of the data set: Tumor accumulation in the NMRI-SK-Me13 human xenograft mouse model. The note with it: after 96 hours. The format is in vivo. As for the experimental part:
as §1, §2
In general terms: Xenograft models place foreign cells or tissue in a host animal.

For the next data set, the system named is thyroid gland. Kind of data set: Thyroid gland accumulation as indication of dehalogenation in vivo. An excerpt:
Another drawback of the most similar compounds of the prior art is that the compounds of Eisenhut et al. dehalogenate more quickly in the body than the compounds according to the invention.
The thyroid gland accumulation of BA40 and BA42, an indication of dehalogenation in vivo, is increased by a factor of 10-15 compared to the compounds according to the invention.

A short description of the next data set: Lipophilicity. The format is physicochemical. The note with it: in words.
[3] abbreviates: 1 hour after intravenous administration.
Setting [4] is: 5 hours after intravenous administration.
Setting [5] is: 24 hours after intravenous administration.
The mark [6] stands for this setting: 6 h after intravenous administration.

With `CCN(CC)CCNC(=O)c1cc(I)c(NC(=O)c2ccc3c(c2)OCO3)cc1OC` [BA52, Benzo[1,3]dioxole-5-carboxylic acid [4-(2-diethylamino-ethylcarbamoyl)-2-iodo-5-methoxy-phenyl]-amide], in data set [1] (setting [3]), the Blood tissue concentration is given as 1.46 % Injected Dose (ID)/g of Tissue, the Liver tissue concentration is given as 19.11 % Injected Dose (ID)/g of Tissue and the Tumor tissue concentration is reported as 14.83 % Injected Dose (ID)/g of Tissue. In data set [1] (setting [4]), the Blood tissue concentration is recorded as 0.69 % Injected Dose (ID)/g of Tissue, the Liver tissue concentration is given as 6.53 % Injected Dose (ID)/g of Tissue and the Tumor tissue concentration was 22.69 % Injected Dose (ID)/g of Tissue. Moreover, in data set [1] (setting [5]), the Blood tissue concentration is 0.05 % Injected Dose (ID)/g of Tissue, the Liver tissue concentration is 0.49 % Injected Dose (ID)/g of Tissue and the Tumor tissue concentration is 18.82 % Injected Dose (ID)/g of Tissue. For the same compound, in data set [1] (after 6 and 24 hours, in words), the “Blood accumulation compared with BA42” value is “considerably lower” and the “Liver concentration compared with BA42” value was “considerably lower”. In data set [1] (in words), the “Blood accumulation compared with the closest prior art (compound of Eisenhut et al. with NH-Ac)” value was “considerably less”; the “Retardation in the melanoma tissue” value was “extended retardation”; the “Retention in the tumor compared with BA40 and BA42” value was “considerably longer”; the “Tumor concentration compared with BA40 and BA42” value is recorded as “comparable”. Besides, the “Accumulation in the tumor” value in data set [2] is “at least 13 % of the injected dose per gram tissue”. Moreover, the “Stability of the bonded radioisotope I-131 (dehalogenation in vivo)” value (“Stability … (dehalogenation in vivo)” for short) in the data set on thyroid gland is “more stable”. Moreover, the “Lipophilicity compared with the prior art compounds” value in “Lipophilicity” is given as “higher lipophilicity”.

For the compound `CCN(CC)CCNC(=O)c1cc(I)c(NC(=O)c2ccccc2)cc1OC` [BA91], in data set [1] (setting [3]), the Blood tissue concentration is 1.06 % Injected Dose (ID)/g of Tissue, the Liver tissue concentration is on record as 12.68 % Injected Dose (ID)/g of Tissue and the Tumor tissue concentration is reported as 9.68 % Injected Dose (ID)/g of Tissue. In addition, in data set [1] (setting [6]), the Blood tissue concentration is 0.97 % Injected Dose (ID)/g of Tissue, the Liver tissue concentration is 3.63 % Injected Dose (ID)/g of Tissue and the Tumor tissue concentration is recorded as 16.72 % Injected Dose (ID)/g of Tissue. For the same compound, in data set [1] (setting [5]), the Blood tissue concentration is 0.22 % Injected Dose (ID)/g of Tissue, the Liver tissue concentration is given as 0.76 % Injected Dose (ID)/g of Tissue and the Tumor tissue concentration is on record as 13.83 % Injected Dose (ID)/g of Tissue. Further, the “Liver concentration compared with BA42” value in data set [1] (after 6 and 24 hours, in words) is recorded as “considerably lower”. For the same compound, in data set [1] (in words), the “Blood accumulation compared with the closest prior art (compound of Eisenhut et al. with NH-Ac)” value was “considerably less”. For the same compound, in the data set with thyroid gland, the “Stability … (dehalogenation in vivo)” value is given as “more stable”.

`CCN(CC)CCNC(=O)c1cc(I)c(NC(=O)c2ccc(Cl)cc2)cc1OC` [BA93]: in data set [1] (setting [3]), the Blood tissue concentration is 1.30 % Injected Dose (ID)/g of Tissue, the Liver tissue concentration is listed as 13.71 % Injected Dose (ID)/g of Tissue and the Tumor tissue concentration is listed as 10.73 % Injected Dose (ID)/g of Tissue. Further, in data set [1] (setting [6]), the Blood tissue concentration is recorded as 0.82 % Injected Dose (ID)/g of Tissue, the Liver tissue concentration was 5.81 % Injected Dose (ID)/g of Tissue and the Tumor tissue concentration is recorded as 21.67 % Injected Dose (ID)/g of Tissue. In data set [1] (setting [5]), the Blood tissue concentration was 0.22 % Injected Dose (ID)/g of Tissue, the Liver tissue concentration is 1.18 % Injected Dose (ID)/g of Tissue and the Tumor tissue concentration is recorded as 23.46 % Injected Dose (ID)/g of Tissue. Moreover, the “Liver concentration compared with BA42” value in data set [1] (after 6 and 24 hours, in words) is on record as “considerably lower”. In addition, in data set [1] (in words), the “Blood accumulation compared with the closest prior art (compound of Eisenhut et al. with NH-Ac)” value was “considerably less” and the “Retardation in the melanoma tissue” value is recorded as “extended retardation”. For the same compound, the “Stability … (dehalogenation in vivo)” value in the data set with thyroid gland is given as “more stable”.

On to `CCN(CC)CCNC(=O)c1cc(I)c(NC(=O)c2ccc(F)cc2)cc1OC` [BA100], for which, in data set [1] (setting [3]), the Blood tissue concentration is on record as 1.21 % Injected Dose (ID)/g of Tissue, the Liver tissue concentration is 15.49 % Injected Dose (ID)/g of Tissue and the Tumor tissue concentration is reported as 25.51 % Injected Dose (ID)/g of Tissue. In addition, in data set [1] (setting [6]), the Blood tissue concentration is given as 0.70 % Injected Dose (ID)/g of Tissue, the Liver tissue concentration was 4.64 % Injected Dose (ID)/g of Tissue and the Tumor tissue concentration is on record as 28.10 % Injected Dose (ID)/g of Tissue. Also, in data set [1] (setting [5]), the Blood tissue concentration was 0.07 % Injected Dose (ID)/g of Tissue, the Liver tissue concentration is given as 0.76 % Injected Dose (ID)/g of Tissue and the Tumor tissue concentration is 31.66 % Injected Dose (ID)/g of Tissue. Besides, the “Liver concentration compared with BA42” value in data set [1] (after 6 and 24 hours, in words) is given as “considerably lower”. Besides, in data set [1] (in words), the “Blood accumulation compared with the closest prior art (compound of Eisenhut et al. with NH-Ac)” value is on record as “considerably less” and the “Retardation in the melanoma tissue” value is on record as “extended retardation”. In addition, in the data set on thyroid gland, the “Stability … (dehalogenation in vivo)” value is “more stable”.

Regarding `CCN(CC)CCNC(=O)c1cc(I)c(NC(=O)c2ccc(OC)cc2)cc1OC` [BA95], in data set [1] (setting [3]), the Blood tissue concentration is given as 1.26 % Injected Dose (ID)/g of Tissue, the Liver tissue concentration is recorded as 16.35 % Injected Dose (ID)/g of Tissue and the Tumor tissue concentration is reported as 17.45 % Injected Dose (ID)/g of Tissue. In data set [1] (setting [4]), the Blood tissue concentration is reported as 0.76 % Injected Dose (ID)/g of Tissue, the Liver tissue concentration is given as 8.54 % Injected Dose (ID)/g of Tissue and the Tumor tissue concentration is recorded as 14.83 % Injected Dose (ID)/g of Tissue. In addition, in data set [1] (setting [5]), the Blood tissue concentration is reported as 0.07 % Injected Dose (ID)/g of Tissue, the Liver tissue concentration is on record as 0.75 % Injected Dose (ID)/g of Tissue and the Tumor tissue concentration was 29.69 % Injected Dose (ID)/g of Tissue. Further, the “Liver concentration compared with BA42” value in data set [1] (after 6 and 24 hours, in words) is “considerably lower”. In data set [1] (in words), the “Blood accumulation compared with the closest prior art (compound of Eisenhut et al. with NH-Ac)” value is “considerably less” and the “Retardation in the melanoma tissue” value is recorded as “extended retardation”. Also, the “Stability … (dehalogenation in vivo)” value in the data set with thyroid gland is recorded as “more stable”.
